Test [1] concerns PKB Ser473 phosphorylation in Rat1-myr-HA-p110 alpha cells. In words: Reverse protein array assay, PKB Ser473 phosphorylation in Rat1-myr-p110 alpha cells. It is filed as cell-based. As to conditions: 0.5 h, pAkt Ser473, 30 minutes compound incubation, read-out: p-PKB IC50. Summed up:
(§1)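 Cells: Rat1-myr-HA-p110 alpha/beta/delta, seeded ≥20 h. Lysis on ice 10 min; reverse-phase protein array, 4 lysate dilutions; fluorescence read, relative intensity.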

The subject of test [2] is S6 Ribosomal Protein phosphorylation Ser235/236 in TSC1 null mouse embryo fibroblast (MEF) cells. The test is described as follows: Reverse protein array assay, S6 Ribosomal Protein phosphorylation Ser235/236 in TSC1 null MEF cells. The settings on record: 1 h, pS6 ribosomal protein Ser235/236, 60 minutes incubation, read-out: p-S6 IC50. It is filed as cell-based. Summed up:
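TSC1−/− MEFs, seeded and held ≥20 h at 37 °C/5% CO2, were exposed to 8-step serial compound dilutions (0.02% DMSO final; DMSO vehicle control) for 60 min at 37 °C. Cells were then lysed on ice for 10 min and lysates spotted onto reverse protein array chips.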

A further test deals with T1, PI3K gamma (Homo sapiens, UniProt P48736).
T1 construct: His tag (C); made in house; host or cells: baculovirus (pVL1393); Tn5 or TiniPro insect cells; construct from Roger Williams lab, MRC LMB
T1 sequence (P48736 144-1102 limits assumed): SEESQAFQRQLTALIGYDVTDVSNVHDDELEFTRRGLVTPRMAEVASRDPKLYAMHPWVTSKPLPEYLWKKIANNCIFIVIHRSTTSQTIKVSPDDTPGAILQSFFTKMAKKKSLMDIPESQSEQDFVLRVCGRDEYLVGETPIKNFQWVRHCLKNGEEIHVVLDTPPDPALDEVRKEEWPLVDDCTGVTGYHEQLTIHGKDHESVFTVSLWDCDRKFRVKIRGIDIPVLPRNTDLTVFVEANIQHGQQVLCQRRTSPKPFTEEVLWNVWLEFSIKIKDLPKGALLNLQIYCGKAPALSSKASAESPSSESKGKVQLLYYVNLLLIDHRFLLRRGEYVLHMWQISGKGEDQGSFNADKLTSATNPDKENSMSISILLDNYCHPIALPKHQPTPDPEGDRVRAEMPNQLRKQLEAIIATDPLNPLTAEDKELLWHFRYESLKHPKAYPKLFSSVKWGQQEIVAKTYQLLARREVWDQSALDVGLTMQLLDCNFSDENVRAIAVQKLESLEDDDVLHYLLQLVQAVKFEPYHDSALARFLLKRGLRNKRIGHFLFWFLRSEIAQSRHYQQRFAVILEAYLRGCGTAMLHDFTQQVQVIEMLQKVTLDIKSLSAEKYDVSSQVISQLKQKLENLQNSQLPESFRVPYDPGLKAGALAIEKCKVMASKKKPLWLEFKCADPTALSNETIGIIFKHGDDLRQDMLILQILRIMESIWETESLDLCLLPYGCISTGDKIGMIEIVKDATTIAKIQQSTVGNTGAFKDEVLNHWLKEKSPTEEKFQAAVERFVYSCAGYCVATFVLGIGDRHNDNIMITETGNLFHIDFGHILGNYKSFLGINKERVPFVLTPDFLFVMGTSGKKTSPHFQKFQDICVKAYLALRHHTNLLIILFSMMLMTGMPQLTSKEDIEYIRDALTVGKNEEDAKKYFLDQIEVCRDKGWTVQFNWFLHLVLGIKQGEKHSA
The test is described as follows: PI3K gamma kinase assay (Kinase-Glo luminescence). It is filed as biochemical. In short, it runs like this: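 Luminescent ATP-depletion (Kinase-Glo) assay with 150 nM PI3Kγ, 1 μM ATP and 10 μg/mL phosphatidylinositol in 10 mM Tris-HCl pH 7.5, 3 mM MgCl2, 50 mM NaCl, 0.05% CHAPS, 1 mM DTT; 120 min at room temperature. Eight-point dilutions; IC50 by four-parameter logistic fit.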
In general terms: In Kinase-Glo more light means more ATP remaining.

The test system of test [3] is PKB Ser473 phosphorylation in Rat1-myr-HA-p110 beta cells. In words: Reverse protein array assay, PKB Ser473 phosphorylation in Rat1-myr-p110 beta cells. It is filed as cell-based. The settings on record: 0.5 h, pAkt Ser473, 30 minutes incubation, read-out: p-PKB IC50. In short, it runs like this:
as §1

In test [4] the test system is PKB Ser473 phosphorylation in Rat1-myr-HA-p110 delta cells. The test is described as follows: Reverse protein array assay, PKB Ser473 phosphorylation in Rat1-myr-p110 delta cells. It is filed as cell-based. As to conditions: read-out: p-PKB IC50. Summed up: as §1

Each structure is given as a SMILES string.

For `Cc1nn(C)cc1-n1c(=O)n(C)c2cnc3ccc(-c4ccc(N(C)C)nc4)cc3c21` [Example 4.5, 8-(6-Dimethylamino-pyridin-3-yl)-1-(1,3-dimethyl-1H-pyrazol-4-yl)-3-methyl-1,3-dihydro-imidazo[4,5-c]quinolin-2-one], the IC50 in test [1] amounted to 22 nM; in test [2], 13 nM; on PI3K gamma, 292 nM; in test [3] it was 17 nM; in test [4], 38 nM.
The corresponding values for `COc1ccc(-c2ccc3ncc4[nH]c(=O)n(-c5cn(C)nc5C)c4c3c2)cn1` [Example 109, 1-(1,3-Dimethyl-1H-pyrazol-4-yl)-8-(6-methoxy-pyridin-3-yl)-1,3-dihydro-imidazo[4,5-c]quinolin-2-one] are 55 nM, 11 nM, 286 nM, 89 nM and 120 nM.
For the compound `Cc1cncc(-c2ccc3ncc4c(c3c2)n(-c2cn(C)nc2C)c(=O)n4C)c1` [Example 24, 1-(1,3-Dimethyl-1H-pyrazol-4-yl)-3-methyl-8-(5-methyl-pyridin-3-yl)-1,3-dihydro-imidazo[4,5-c]quinolin-2-one], the IC50 in test [1] amounted to 78 nM; in test [2], 9 nM; on PI3K gamma, 111 nM; in test [3] it was 124 nM; in test [4], 170 nM.
As for `COc1ccc(-c2ccc3ncc4c(c3c2)n(-c2cn(C)nc2C)c(=O)n4C)cn1` [Example 2.5, 1-(1,3-Dimethyl-1H-pyrazol-4-yl)-8-(6-methoxy-pyridin-3-yl)-3-methyl-1,3-dihydro-imidazo[4,5-c]quinolin-2-one], the 50% inhibitory concentration (IC50) in test [1] was found to be 18 nM; in test [2], 10 nM; at PI3K gamma, 390 nM; in test [3], 18 nM; in test [4] it was 36 nM.
For `COC(=O)c1ccc(-c2ccc3ncc4c(c3c2)n(-c2cn(C)nc2C)c(=O)n4C)cn1` [Example 100, 5-[1-(1,3-Dimethyl-1H-pyrazol-4-yl)-3-methyl-2-oxo-2,3-dihydro-1H-imidazo[4,5-c]quinolin-8-yl]-pyridine-2-carboxylic acid methyl ester], the IC50 in test [1] is 12 nM; in test [2] it was 4 nM; at PI3K gamma, 287 nM; in test [3] it was 14 nM; in test [4], 43 nM.
In the same order, the values of `COc1ncc(-c2ccc3ncc4c(c3c2)n(-c2cn(C)nc2C)c(=O)n4C)cc1N` [Example 127, 8-(5-Amino-6-methoxy-pyridin-3-yl)-1-(1,3-dimethyl-1H-pyrazol-4-yl)-3-methyl-1,3-dihydro-imidazo[4,5-c]quinolin-2-one] are 5 nM, 3 nM, 121 nM, 9 nM and 18 nM.
In the same order, the values of `CCOc1cncc(-c2ccc3ncc4c(c3c2)n(-c2cn(CC(=O)N(C)C)nc2C)c(=O)n4C)c1` [Example 56.2, 2-{4-[8-(5-Ethoxy-pyridin-3-yl)-3-methyl-2-oxo-2,3-dihydro-imidazo[4,5-c]quinolin-1-yl]-3-methyl-pyrazol-1-yl}-N,N-dimethyl-acetamide] are 303 nM, 10 nM, 199 nM, 409 nM and 468 nM.
The corresponding values for `Cc1ncc(-c2ccc3ncc4c(c3c2)n(-c2cn(C)nc2C)c(=O)n4C)cc1NS(C)(=O)=O` [Example 76, N-{5-[1-(1,3-Dimethyl-1H-pyrazol-4-yl)-3-methyl-2-oxo-2,3-dihydro-1H-imidazo[4,5-c]quinolin-8-yl]-2-methyl-pyridin-3-yl}-methanesulfonamide] are 180 nM, 200 nM, 96 nM, 356 nM and 390 nM.
Turning to `Cc1nn(C)cc1-n1c(=O)n(C)c2cnc3ccc(-c4ccc(OCCCO)nc4)cc3c21` [Example 108, 1-(1,3-Dimethyl-1H-pyrazol-4-yl)-8-[6-(3-hydroxy-propoxy)-pyridin-3-yl]-3-methyl-1,3-dihydro-imidazo[4,5-c]quinolin-2-one], the IC50 in test [1] came to 134 nM; in test [2], 17 nM; on PI3K gamma, 535 nM; in test [3] it was 128 nM; in test [4] it was 401 nM.
In the same order, the values of `CCOc1ccc(-c2ccc3ncc4c(c3c2)n(-c2cn(CC)nc2C)c(=O)n4C)cc1OC` [Example 29.1, 8-(4-Ethoxy-3-methoxy-phenyl)-1-(1-ethyl-3-methyl-1H-pyrazol-4-yl)-3-methyl-1,3-dihydro-imidazo[4,5-c]quinolin-2-one] are 5 nM, 9 nM, 69 nM, 93 nM and 59 nM.
The corresponding values for `Cc1nn(C)cc1-n1c(=O)n(C)c2cnc3ccc(-c4cnc5ccccc5c4)cc3c21` [Example 38, 1-(1,3-Dimethyl-1H-pyrazol-4-yl)-3-methyl-8-quinolin-3-yl-1,3-dihydro-imidazo[4,5-c]quinolin-2-one] are 7 nM, 3 nM, 123 nM, 9 nM and 19 nM.
`Cc1nn(C)cc1-n1c(=O)n(C)c2cnc3ccc(-c4cnc5c(ccn5C)c4)cc3c21` [Example 116, 1-(1,3-Dimethyl-1H-pyrazol-4-yl)-3-methyl-8-(1-methyl-1H-pyrrolo[2,3-b]pyridin-5-yl)-1,3-dihydro-imidazo[4,5-c]quinolin-2-one]: the IC50 is less than 5 nM in test [1]; 6 nM in test [2]; 236 nM on PI3K gamma; 18 nM in test [3]; 34 nM in test [4].
In the same order, the values of `CCOc1ccc(-c2ccc3ncc4c(c3c2)n(-c2c(C)nn(C)c2C)c(=O)n4C)cn1` [Example 3.3, 8-(6-Ethoxy-pyridin-3-yl)-3-methyl-1-(1,3,5-trimethyl-1H-pyrazol-4-yl)-1,3-dihydro-imidazo[4,5-c]quinolin-2-one] are 50 nM, 255 nM, 309 nM, 548 nM and 927 nM.
On to `Cc1nn(C)cc1-n1c(=O)n(C)c2cnc3ccc(-c4cccc(S(=O)(=O)N5CCCC5)c4)cc3c21` [Example 44, 1-(1,3-Dimethyl-1H-pyrazol-4-yl)-3-methyl-8-[3-(pyrrolidine-1-sulfonyl)-phenyl]-1,3-dihydro-imidazo[4,5-c]quinolin-2-one], for which the 50% inhibitory concentration (IC50) came to 41 nM in test [1]; 80 nM in test [2]; 237 nM at PI3K gamma; 42 nM in test [3]; 134 nM in test [4].
Regarding `CCn1cc(-n2c(=O)n(C)c3cnc4ccc(-c5ccc(OC)c(OC)c5)cc4c32)c(C)n1` [Example 1.6, 8-(3,4-Dimethoxy-phenyl)-1-(1-ethyl-3-methyl-1H-pyrazol-4-yl)-3-methyl-1,3-dihydro-imidazo[4,5-c]quinolin-2-one], the half-inhibitory concentration (IC50) in test [1] was 10 nM; in test [2] it was less than 5 nM; at PI3K gamma, 157 nM; in test [3], 22 nM; in test [4], 30 nM.
The corresponding values for `Cc1nn(C)cc1-n1c(=O)n(C)c2cnc3ccc(-c4ccc(C(N)=O)nc4)cc3c21` [Example 14, 5-[1-(1,3-Dimethyl-1H-pyrazol-4-yl)-3-methyl-2-oxo-2,3-dihydro-1H-imidazo[4,5-c]quinolin-8-yl]-pyridine-2-carboxylic acid amide] are 26 nM, 123 nM, 212 nM, 18 nM and 74 nM.
The corresponding values for `Cc1nn(C)cc1-n1c(=O)n(C)c2cnc3ccc(-c4ccc(-n5cccn5)cc4)cc3c21` [Example 51.1, 1-(1,3-Dimethyl-1H-pyrazol-4-yl)-3-methyl-8-(4-pyrazol-1-yl-phenyl)-1,3-dihydro-imidazo[4,5-c]quinolin-2-one] are less than 5 nM, 5 nM, 213 nM, less than 5 nM and 29 nM.
In the same order, the values of `CCOc1ncc(-c2ccc3ncc4c(c3c2)n(-c2cn(C)nc2C)c(=O)n4C)cc1N(C)C(C)=O` [Example 63, N-{5-[1-(1,3-Dimethyl-1H-pyrazol-4-yl)-3-methyl-2-oxo-2,3-dihydro-1H-imidazo[4,5-c]quinolin-8-yl]-2-ethoxy-pyridin-3-yl}-N-methyl-acetamide] are 265 nM, 13.4 nM, 816 nM, 744 nM and 356 nM.

What is called IC50 is the concentration at which inhibition is half-maximal.

For the origin of these results see patent US20140005163A1 (NOVARTIS AG, priority 2010, published 2014).
